US20220071961A1, “Dosing Regimen of Bicyclic Substituted Pyrazolone Azo Derivative” (Jiangsu Hengrui Medicine CO., LTD., priority 2019, published 2022)
Where two headings read alike, the source gives them in different places.

Assay: Effect of different intervals between administration and a meal on pharmacokinetic parameters (three-period crossover, single oral dose)
Assay type: in vivo, human
Conditions: single oral 7.5 mg; for AUC(0-t) / AUC / Cmax / MRT / Tmax / Vd/F / half-life: male, human, plasma, po, 7.5 mg; for MRT: read-out: MRT Geomean (% CVb); for Tmax: read-out: Tmax Median; for Vd/F: read-out: Vz/F Geomean (% CVb)
Procedure: Embodiment 1: Study on an effect of different intervals between the administration and a meal on pharmacokinetic parameters of a compound represented by Formula I
Diethanolamine salt tablets of the compound represented by Formula I, with specifications of 2.5 mg/table and 5 mg/tablet.
15 healthy adult male subjects were recruited for the trial. They were randomly divided into three trial groups which correspond to three dosing sequences, i.e. ABC, BCA and CAB. A cleaning period is 10 days.
Group A: every subject orally took the test products (one T1: 2.5 mg/tablet and one T2: 5 mg/tablet) once on an empty stomach with 240 mL of room temperature water on the morning of the test. […] They were not allowed to drink water within 1 h before administration and 1 h after administration, but were allowed to drink water as needed for the rest time.
(§1) Group B: every subject orally took the test products (one T1: 2.5 mg/tablet and one T2: 5 mg/tablet) once on an empty stomach with 240 mL of room temperature water on the morning of the test. They ate high-fat and high-calorie standard meals 1 h after administration, needed to stagger the timing of the breakfast and the blood sampling, and needed to finish the breakfast within 30 min. They were not allowed to drink water within 1 h before administration and 1 h after administration, but were allowed to drink water as needed for the rest time.
as §1, with “Group C:” for “Group B:”, “meals 2” for “meals 1”
The high-fat meal: calories: 800 to 1,000 kcal, composed of 150 kcal of protein, 250 kcal of carbohydrates and 500 to 600 kcal of fats, wherein about 50% of the calories come from the fats. The ingredients and proportions of the standard meals needed to be consistent in each test period. The specific administration sequences are shown in a table below. An effect of food on the medicine was analyzed by sampling blood at fixed time points before and after administration and measuring vital signs.
In the test, there were Group A (without a breakfast after administration), Group B (with a high-fat and high-calorie standard meal 1 h after administration) and Group C (with a high-fat and high-calorie standard meal 2 h after administration) which correspond to threes administration sequences, i.e. ABC, BCA and CAB. A non-compartmental model (NCA) of WinNonlin 7.0 version was used to calculate PK parameters according to the actual sampling time, and software of SAS 9.4 version was used to list and make descriptive statistical analysis on the PK parameters. Results of descriptive statistical analysis of the PK parameters of the compound represented by Formula I of the subjects in the groups (Group A, Group B and Group C) with different intervals between the administration and a meal are shown in Table 2.
A mixed-effects model was used to perform analysis of variance (ANOVA) on the PK parameters (Cmax, AUC0-t and AUC0-τ), which are subjected to natural log conversion, of the subjects in the groups with different intervals between administration and a meal by using the software of SAS 9.4 version.

[1] = Group B vs Group A (meal 1 h after administration vs no food)
[2] = Group B vs Group C (meal 1 h vs meal 2 h after administration)
[3] = Group C vs Group A (meal 2 h after administration vs no food)
[4] = food 1 h after administration relative to food 2 h after administration
[5] = food 1 h after administration relative to no food after administration
[6] = food 2 h after administration relative to no food after administration
[7] = Group A, without a breakfast after administration, N = 15
[8] = Group B, high-fat meal 1 h after administration, N = 14
[9] = Group C, high-fat meal 2 h after administration, N = 14

For `CC1=NN(c2ccc3c(c2)CCCC3)C(=O)/C1=N\Nc1cccc(-c2ccc(C(=O)O)o2)c1O` [compound represented by Formula I], the “AUC0-t GeoLSM Ratio” value [1] was 23.65%, the “AUC0-ē GeoLSM Ratio” value [1] was 25.37% and the “Cmax GeoLSM Ratio” value [1] was 44.01%. For the same compound, the “AUC0-t GeoLSM Ratio” value [2] was 66.10%, the “AUC0-ē GeoLSM Ratio” value [2] was 65.76% and the “Cmax GeoLSM Ratio” value [2] was 78.12%. The “AUC0-t GeoLSM Ratio” value [3] was 35.78%, the “AUC0-ē GeoLSM Ratio” value [3] was 38.57% and the “Cmax GeoLSM Ratio” value [3] was 56.33%. For the same compound, the “AUC0-τ reduced by” value [4] was ~34%, the “Cmax reduced by” value [4] was “about 22%” and the “AUC0-τ reduced by” value [5] was ~75%. For the same compound, the “Cmax reduced by” value [5] was “about 56%”, the “AUC0-τ reduced by” value [6] was ~61% and the “Cmax reduced by” value [6] was “about 44%”. For the same compound, the AUC(0-t) (Group A, no food after administration, n 15, mixed-effects ANOVA, read-out: AUC0-t GeoLSM (geometric least squares mean)) was 857 ng·h/mL, the AUC (Group A, no food after administration, n 15, mixed-effects ANOVA, read-out: AUC0-ē GeoLSM (geometric least squares mean)) was 929 ng·h/mL and the Cmax (Group A, no food after administration, n 15, mixed-effects ANOVA, read-out: Cmax GeoLSM (geometric least squares mean)) was 35.1 ng/mL. It also gave an AUC(0-t) (Group A, without a breakfast after administration, N = 15, read-out: AUC0-t Geomean (% CVb)) of 857 ng·h/mL, an AUC(0-t) (Group A, without a breakfast after administration, N = 15, read-out: AUC0-t Mean SD) of 1040 ng·h/mL and an AUC (Group A, without a breakfast after administration, N = 15, read-out: AUC0-ē Geomean (% CVb)) of 929 ng·h/mL. For the same compound, the AUC (Group A, without a breakfast after administration, N = 15, read-out: AUC0-ē Mean SD) was 1110 ng·h/mL, the Cmax (Group A, without a breakfast after administration, N = 15, read-out: Cmax Geomean (% CVb)) was 35.1 ng/mL and the Cmax (Group A, without a breakfast after administration, N = 15, read-out: Cmax Mean SD) was 39.2 ng/mL. For the same compound, the MRT [7] was 32.1 h, the Tmax [7] was 7 h and the Vd/F [7] was 308 L. For the same compound, the half-life (Group A, without a breakfast after administration, N = 15, read-out: t1/2 Geomean (% CVb) (converted)) was 26.4 h, the half-life (Group A, without a breakfast after administration, N = 15, read-out: t1/2 Mean SD (converted)) was 29.3 h and the Tmax (Group B, high-fat and high-calorie standard meal 1 h after administration, N = 14) was 2 h. The AUC(0-t) (Group B, high-fat meal 1 h after administration, N = 14, read-out: AUC0-t Geomean (% CVb)) was 202 ng·h/mL, the AUC(0-t) (Group B, high-fat meal 1 h after administration, N = 14, read-out: AUC0-t Mean SD) was 314 ng·h/mL and the AUC (Group B, high-fat meal 1 h after administration, N = 14, read-out: AUC0-ē Geomean (% CVb)) was 235 ng·h/mL. It also gave an AUC (Group B, high-fat meal 1 h after administration, N = 14, read-out: AUC0-ē Mean SD) of 347 ng·h/mL, a Cmax (Group B, high-fat meal 1 h after administration, N = 14, read-out: Cmax Geomean (% CVb)) of 15.4 ng/mL and a Cmax (Group B, high-fat meal 1 h after administration, N = 14, read-out: Cmax Mean SD) of 21.1 ng/mL. For the same compound, the MRT [8] was 17.4 h, the Vd/F [8] was 531 L and the half-life (Group B, high-fat meal 1 h after administration, N = 14, read-out: t1/2 Geomean (% CVb) (converted)) was 11.6 h. For the same compound, the half-life (Group B, high-fat meal 1 h after administration, N = 14, read-out: t1/2 Mean SD (converted)) was 13.1 h, the AUC(0-t) (Group B, meal 1 h after administration, n 14, mixed-effects ANOVA, read-out: AUC0-t GeoLSM (geometric least squares mean)) was 203 ng·h/mL and the AUC (Group B, meal 1 h after administration, n 14, mixed-effects ANOVA, read-out: AUC0-ē GeoLSM (geometric least squares mean)) was 236 ng·h/mL. It also gave a Cmax (Group B, meal 1 h after administration, n 14, mixed-effects ANOVA, read-out: Cmax GeoLSM (geometric least squares mean)) of 15.5 ng/mL, a Tmax (Group C, high-fat and high-calorie standard meal 2 h after administration, N = 14) of 5.01 h and an AUC(0-t) (Group C, high-fat meal 2 h after administration, N = 14, read-out: AUC0-t Geomean (% CVb)) of 303 ng·h/mL. The AUC(0-t) (Group C, high-fat meal 2 h after administration, N = 14, read-out: AUC0-t Mean SD) was 547 ng·h/mL, the AUC (Group C, high-fat meal 2 h after administration, N = 14, read-out: AUC0-ē Geomean (% CVb)) was 355 ng·h/mL and the AUC (Group C, high-fat meal 2 h after administration, N = 14, read-out: AUC0-ē Mean SD) was 591 ng·h/mL. It also gave a Cmax (Group C, high-fat meal 2 h after administration, N = 14, read-out: Cmax Geomean (% CVb)) of 19.6 ng/mL, a Cmax (Group C, high-fat meal 2 h after administration, N = 14, read-out: Cmax Mean SD) of 28.6 ng/mL and an MRT [9] of 21.4 h. The Vd/F [9] was 460 L, the half-life (Group C, high-fat meal 2 h after administration, N = 14, read-out: t1/2 Geomean (% CVb) (converted)) was 15.1 h and the half-life (Group C, high-fat meal 2 h after administration, N = 14, read-out: t1/2 Mean SD (converted)) was 18.6 h. The AUC(0-t) (Group C, meal 2 h after administration, n 14, mixed-effects ANOVA, read-out: AUC0-t GeoLSM (geometric least squares mean)) was 307 ng·h/mL, the AUC (Group C, meal 2 h after administration, n 14, mixed-effects ANOVA, read-out: AUC0-ē GeoLSM (geometric least squares mean)) was 358 ng·h/mL and the Cmax (Group C, meal 2 h after administration, n 14, mixed-effects ANOVA, read-out: Cmax GeoLSM (geometric least squares mean)) was 19.8 ng/mL. For the same compound, the “% AUCex Geomean (% CVb)” value [7] was 6.62%, the “CL/F Geomean (% CVb)” value [7] was 8.0740 L/h and the “CL/F Mean SD” value [7] was 10.4506 L/h. For the same compound, the “≅z Geomean (% CVb)” value [7] was 0.0263 h⁻¹, the “% AUCex Geomean (% CVb)” value [8] was 11.39% and the “CL/F Geomean (% CVb)” value [8] was 31.8657 L/h. For the same compound, the “CL/F Mean SD” value [8] was 52.4396 L/h, the “≅z Geomean (% CVb)” value [8] was 0.0600 h⁻¹ and the “% AUCex Geomean (% CVb)” value [9] was 10.57%. The “CL/F Geomean (% CVb)” value [9] was 21.1107 L/h, the “CL/F Mean SD” value [9] was 42.1126 L/h and the “≅z Geomean (% CVb)” value [9] was 0.0459 h⁻¹.
